Measurements as given in US8115017B2, “C-phenyl 1-thioglucitol compound” (Taisho Pharmaceutical Co., Ltd, priority 2006, dated 2012).

Experiments:
[1] = target: T1, human SGLT1 (Homo sapiens, UniProt P13866); test: Inhibition test for sodium-dependent sugar uptake in CHO-K1 cells stably expressing human SGLT1; assay type: cell-based; settings: [14C]methyl α-D-glucopyranoside uptake, 37° C., 30 minutes, read-out: human SGLT1 IC50 (50% inhibition of sugar uptake)
T1 construct: expressed in transfected cells; host or cells: CHO-K1
T1 sequence (P13866 1-664): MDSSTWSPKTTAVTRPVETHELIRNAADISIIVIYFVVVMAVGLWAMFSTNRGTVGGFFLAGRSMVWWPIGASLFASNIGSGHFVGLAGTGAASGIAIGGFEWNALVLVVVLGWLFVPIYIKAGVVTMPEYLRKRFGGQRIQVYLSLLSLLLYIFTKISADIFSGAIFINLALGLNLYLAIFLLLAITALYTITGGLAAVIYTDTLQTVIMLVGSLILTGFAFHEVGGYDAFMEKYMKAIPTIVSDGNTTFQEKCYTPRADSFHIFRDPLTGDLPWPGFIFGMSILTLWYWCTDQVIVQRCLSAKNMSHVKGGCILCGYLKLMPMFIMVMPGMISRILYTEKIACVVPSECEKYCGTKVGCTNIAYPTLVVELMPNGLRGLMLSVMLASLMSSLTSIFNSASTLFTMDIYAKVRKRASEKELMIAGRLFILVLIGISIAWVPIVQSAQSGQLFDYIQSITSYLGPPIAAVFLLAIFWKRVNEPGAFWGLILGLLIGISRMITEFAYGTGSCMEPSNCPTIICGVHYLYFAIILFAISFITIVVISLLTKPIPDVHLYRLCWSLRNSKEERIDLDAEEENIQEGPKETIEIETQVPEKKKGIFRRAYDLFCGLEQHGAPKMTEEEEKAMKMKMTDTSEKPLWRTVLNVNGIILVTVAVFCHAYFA
Protocol: (§1) A human SGLT1 sequence (NM_000343) was reverse-transcribed and amplified from human small intestine mRNA, and then introduced into pCMV-tag5A (Stratagene). Likewise, a human SGLT2 sequence (NM_003041) was prepared from human kidney mRNA in the same manner and introduced into pcDNA3.1+hygro (Invitrogen). The individual cloned sequences were confirmed to be identical with the sequences reported.
(§2) The human SGLT1 and human SGLT2 expression vectors were each transfected into CHO-K1 cells using lipofectamine 2000 (Invitrogen). The cells were cultured in the presence of 500 μg/mL geneticin (SGLT1) or hygromycin B (SGLT2) to select resistant strains and specific activity of sugar uptake in the system shown below was used as an indicator to obtain SGLT-expressing cells.
(§3) The cells stably expressing human SGLT1 or human SGLT2 were used for an inhibition test of sodium-dependent glucose uptake activity.
(§4) Pretreatment buffer (140 mM choline chloride, 2 mM KCl, 1 mM CaCl2, 1 mM MgCl2, 10 mM HEPES/5 mM Tris, pH 7.4) was added in a volume of 200 μL to human SGLT1-expressing cells and 2 mL to human SGLT2-expressing cells, followed by incubation for 20 minutes. The pretreatment buffer was removed and replaced with uptake buffer containing a test compound (1 mM methyl α-D-glucopyranoside (containing [^14C]methyl α-D-glucopyranoside), 145 mM NaCl, 2 mM KCl, 1 mM CaCl2, 1 mM MgCl2, 10 mM HEPES/5 mM Tris, pH 7.4) in a volume of 75 μL for SGLT1 and 200 μL for SGLT2. Uptake reaction was performed at 37° C. for 30 minutes (SGLT1) or 1 hour (SGLT2). After the reaction, the cells were washed twice with washing buffer (10 mM methyl α-D-glucopyranoside, 140 mM choline chloride, 2 mM KCl, 1 mM CaCl2, 1 mM MgCl2, 10 mM HEPES/5 mM Tris, pH 7.4) in a volume of 200 μL for SGLT1 and 2 mL for SGLT2, and then dissolved in a 0.2 M NaOH solution (75 μL for SGLT1 and 400 μL for SGLT2). A liquid scintillator (Perkin Elmer) was added and mixed well with each sample, followed by measurement of radioactivity using a microBETA for SGLT1 or a liquid scintillation counter for SGLT2 (Beckman Coulter). For the control group, uptake buffer containing no test compound was prepared. Moreover, another uptake buffer containing choline chloride instead of NaCl was also prepared for basal uptake.
(§5) For determination of IC50 values, test compounds prepared at 6 appropriate concentrations were used and their concentrations required for 50% inhibition of the amount of sugar uptake (IC50 values) were calculated relative to the amount of sugar uptake in the control group (100%).

[2] = target: T2, human SGLT2 (Homo sapiens, UniProt P31639); test: Inhibition test for sodium-dependent sugar uptake in CHO-K1 cells stably expressing human SGLT2; assay type: cell-based; settings: [14C]methyl α-D-glucopyranoside uptake, 37° C., 1 hour, read-out: human SGLT2 IC50 (50% inhibition of sugar uptake)
T2 construct: expressed in transfected cells; host or cells: CHO-K1
T2 sequence (P31639 1-672): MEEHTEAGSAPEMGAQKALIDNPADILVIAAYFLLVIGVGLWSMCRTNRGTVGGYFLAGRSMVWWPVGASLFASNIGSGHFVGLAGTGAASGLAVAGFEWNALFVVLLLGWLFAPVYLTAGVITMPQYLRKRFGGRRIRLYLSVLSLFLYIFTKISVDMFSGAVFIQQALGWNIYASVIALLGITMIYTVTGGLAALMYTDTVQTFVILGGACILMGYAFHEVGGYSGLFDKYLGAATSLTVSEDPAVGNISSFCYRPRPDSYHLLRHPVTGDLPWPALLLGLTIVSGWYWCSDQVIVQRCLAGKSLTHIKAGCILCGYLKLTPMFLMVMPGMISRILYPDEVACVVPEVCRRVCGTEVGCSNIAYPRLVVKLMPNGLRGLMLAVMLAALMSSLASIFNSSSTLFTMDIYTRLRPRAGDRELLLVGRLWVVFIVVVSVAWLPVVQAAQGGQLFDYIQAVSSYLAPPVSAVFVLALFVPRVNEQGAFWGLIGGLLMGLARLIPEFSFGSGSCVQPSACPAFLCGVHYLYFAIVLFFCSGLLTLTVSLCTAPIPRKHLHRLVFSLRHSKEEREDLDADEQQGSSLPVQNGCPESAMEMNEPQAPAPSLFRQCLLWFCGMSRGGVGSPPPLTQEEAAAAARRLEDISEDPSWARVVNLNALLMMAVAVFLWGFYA
Protocol: as §1, §2, §3, §4, §5

[3] = test system: Streptozotocin-induced diabetic model rats; test: Oral glucose tolerance test in streptozotocin-induced diabetic model rats (hypoglycemic effect); assay type: in vivo, rat; settings: STZ diabetic SD/IGS rats; 1 mg/kg oral; glucose 2 g/kg oral; decrease in blood glucose ΔAUC 0-1 h relative to control group
Protocol: SD/IGS rats at 7 weeks of age (male, Charles River Laboratories Japan Inc.) were fasted for about 16 hours and then injected with 50 mg/kg streptozotocin (STZ) via the tail vein under ether anesthesia to prepare diabetic model rats. Similarly, another group of SD/IGS rats was injected with 1.25 mmol/L citric acid in physiological saline (1 mL/kg) via the tail vein under ether anesthesia to prepare normal control rats. At one week (8 weeks of age) after injection of STZ or 1.25 mmol/L citric acid in physiological saline, the rats were provided for an oral glucose tolerance test.
After the rats were fasted for about 16 hours, drug groups were each orally administered with a drug (1 mg/kg) suspended in a 0.5% aqueous carboxymethylcellulose (CMC) solution, while the control group was orally administered with a 0.5% aqueous CMC solution alone. At 5 minutes after drug administration, a glucose solution (2 g/kg) was orally administered and blood was collected at 5 points in total: before drug administration (0 hour) and 0.25, 0.5, 1 and 2 hours after oral administration.
Blood was collected from the orbital venous sinus of each rat under ether anesthesia using a heparin-coated blood collection tube, and centrifuged to separate plasma. Plasma glucose concentrations were quantified by measurement with a Glucose CII-Test Wako (Wako Pure Chemical Industries, Ltd., Japan). To determine the intensity of hypoglycemic effect, blood glucose levels measured between 0 and 1 hour in each drug group were analyzed by the trapezoidal method to calculate the area under the blood glucose-time curve (AUC), followed by basal subtraction to obtain a blood glucose increment (ΔAUC).

| IC50 [1] | IC50 [2] | Compound | STZ rat-OGTT (2 g/Kg) % inhibition ΔAUC0-1 h (mgh/dL) @1 mg/Kg [3] |
| --- | --- | --- | --- |
| 11 nM | 17 nM | Cc1cc(O)c([C@@H]2S[C@H](CO)[C@@H](O)[C@H](O)[C@H]2O)cc1Cc1ccc(CCCC(=O)NC(C)(C)CO)cc1 [Example 1, (1S)-1,5-anhydro-1-[2-hydroxy-5-(4-{4-[(2-hydroxy-1,1-dimethylethyl)amino]-4-oxobutyl}benzyl)-4-methylphenyl]-1-thio-D-glucitol] | 70.4 % inhibition |
| 22 nM | 21 nM | Cc1cc(O)c([C@@H]2S[C@H](CO)[C@@H](O)[C@H](O)[C@H]2O)cc1Cc1ccc(CCCC(=O)NC(C)(CO)CO)cc1 [Example 2, (1S)-1,5-anhydro-1-{2-hydroxy-5-[4-(4-{[2-hydroxy-1-(hydroxymethyl)-1-methylethyl]amino}-4-oxobutyl)benzyl]-4-methylphenyl}-1-thio-D-glucitol] | 65.4 % inhibition |
| 35 nM | 31 nM | Cc1cc(O)c([C@@H]2S[C@H](CO)[C@@H](O)[C@H](O)[C@H]2O)cc1Cc1ccc(CCCC(=O)NC(CO)(CO)CO)cc1 [Example 3, (1S)-1,5-anhydro-1-{2-hydroxy-5-[4-(4-{[2-hydroxy-1,1-bis(hydroxymethyl)ethyl]amino}-4-oxobutyl)benzyl]-4-methylphenyl}-1-thio-D-glucitol] | 60.8 % inhibition |
| 47 nM | 49 nM | Cc1cc(O)c([C@@H]2S[C@H](CO)[C@@H](O)[C@H](O)[C@H]2O)cc1Cc1ccc(CCCC(=O)NC(C)(C)C(N)=O)cc1 [Example 4, (1S)-1-[5-(4-{4-[(2-amino-1,1-dimethyl-2-oxoethyl)amino]-4-oxobutyl}benzyl)-2-hydroxy-4-methylphenyl]-1,5-anhydro-1-thio-D-glucitol] | 66.5 % inhibition |
| 20 nM | 99 nM | Cc1cc(CCCC(=O)NC(C)(C)CO)ccc1Cc1cc([C@@H]2S[C@H](CO)[C@@H](O)[C@H](O)[C@H]2O)c(O)cc1C [Example 5, (1S)-1,5-anhydro-1-[2-hydroxy-5-(4-{4-[(2-hydroxy-1,1-dimethylethyl)amino]-4-oxobutyl}-2-methylbenzyl)-4-methylphenyl]-1-thio-D-glucitol] | – |
| 22 nM | 32 nM | Cc1cc(O)c([C@@H]2S[C@H](CO)[C@@H](O)[C@H](O)[C@H]2O)cc1Cc1ccc(CCCNC(=O)NC(C)(C)CO)cc1 [Example 6, (1S)-1-{5-[4-(3-{[(2-hydroxy-1,1-dimethylethyl)aminocarbonyl]amino}propyl)benzyl]-2-hydroxy-4-methylphenyl}-1,5-anhydro-1-thio-D-glucitol] | 69.2 % inhibition |
| 79 nM | 38 nM | Cc1cc(O)c([C@@H]2S[C@H](CO)[C@@H](O)[C@H](O)[C@H]2O)cc1Cc1ccc(CCCCC(=O)NC(C)(C)CO)cc1 [Example 8, (1S)-1,5-anhydro-1-[2-hydroxy-5-(4-{5-[(2-hydroxy-1,1-dimethylethyl)amino]-5-oxopentyl}benzyl)-4-methylphenyl]-1-thio-D-glucitol] | – |
